# From article PMC13211308, “Chemical genetics reveals Leishmania KKT2 and CRK9 kinase activity is required for cell cycle progression” (PLOS Pathogens, 2026)
# Target: T1, rCLK1 (recombinant CLK1, KKT10) (Leishmania mexicana, UniProt E9AMP2)
# T1 construct: gene LMXM_09_0400
# T1 sequence (E9AMP2 1-422): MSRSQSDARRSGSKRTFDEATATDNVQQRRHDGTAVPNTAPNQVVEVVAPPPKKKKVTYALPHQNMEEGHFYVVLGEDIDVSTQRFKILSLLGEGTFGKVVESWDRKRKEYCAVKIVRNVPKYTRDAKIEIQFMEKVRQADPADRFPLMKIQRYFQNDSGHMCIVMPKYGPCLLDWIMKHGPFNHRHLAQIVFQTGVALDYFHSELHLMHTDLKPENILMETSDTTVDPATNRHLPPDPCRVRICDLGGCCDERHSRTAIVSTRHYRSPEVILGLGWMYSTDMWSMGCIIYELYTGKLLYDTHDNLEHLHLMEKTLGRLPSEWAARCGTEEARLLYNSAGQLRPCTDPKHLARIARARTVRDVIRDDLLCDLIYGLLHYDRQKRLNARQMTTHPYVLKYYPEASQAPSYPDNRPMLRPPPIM
# Conditions: 1 mM ATP, 5 mM MgCl2, 1 mM MnCl2, pH 7.5, 2 h, 37 °C
smiles,measurement,value
Nc1ncnc2c1ncn2[C@@H]1O[C@H](COP(=O)(O)OP(=O)(O)OP(=O)(O)O)[C@@H](O)[C@H]1O [ATP],autophosphorylation by intact mass spectrometry,"Following incubation with ATP, rCLK1 exhibited three distinct phosphorylation states"
